{"source": "patent EP0908457B1", "about": "“3-(1,2-benzisothiazol- and isoxazol-5-Y1)-2,4(1H,3H)-pyrimidinedione or thione and 3-(1,2-benzisothiazol- and isoxazol-5-y1)-4(3H)-pyrimidinone or thione herbicidal agents” (BASF AKTIENGESELLSCHAFT, priority 1997, dated 1999)", "key": {"[1]": {"tested_on": "Cyperus serotinus, Rottb.", "test": "Preemergence weed control under flooded paddy conditions, CYPSE (Flatsedge); for herbicidal effect rating, CYPSE: meaning of each grade not given here", "assay_type": "in vivo", "settings": "preemergence, rated three to four weeks after treatment"}, "[2]": {"tested_on": "Sagittaria pygmaea, L.", "test": "Preemergence weed control under flooded paddy conditions, SAGPY (Arrowhead (Pygmaea)); for herbicidal effect rating, SAGPY: meaning of each grade not given here", "assay_type": "in vivo", "settings": "preemergence, flooded paddy, rated three to four weeks after treatment"}, "[3]": {"tested_on": "Monochoria vaginalis, Presl.", "test": "Preemergence weed control under flooded paddy conditions, MOOVA (Monochoria); for herbicidal effect rating, MOOVA: meaning of each grade not given here", "assay_type": "in vivo", "settings": "preemergence, flooded paddy, rated three to four weeks after treatment"}, "[4]": {"tested_on": "Cyperus iria", "test": "Preemergence weed control under flooded paddy conditions, CYPIR (Rice Flatsedge); for herbicidal effect rating, CYPIR: meaning of each grade not given here", "assay_type": "in vivo", "settings": "preemergence, flooded paddy, rated three to four weeks after treatment"}, "[5]": {"tested_on": "Echinochloa oryzoides (Ard.) Fritsch.", "test": "Preemergence weed control under flooded paddy conditions, ECHORC (Watergrass (Calif.)); for herbicidal effect rating, ECHORC: meaning of each grade not given here", "assay_type": "in vivo", "settings": "preemergence, flooded paddy, rated three to four weeks after treatment"}, "[6]": {"tested_on": "Oryza sativa, (L.) Tebonnet", "test": "Rice tolerance to post-transplant applications under flooded paddy conditions (Example 187), ORYSAT (Rice, Tebonnet)", "settings": "rated three to four weeks after treatment"}}, "data": [{"compound": "Cc1cccc(CS(=O)(=O)NC(=O)c2nsc3ccc(-n4c(=O)cc(C(F)(F)F)n(C)c4=O)cc23)c1", "note": "[Example 483, 1,2-Benzisothiazole-3-carboxamide, 5-[3,6-dihydro-3-methyl-2,6-dioxo-4-(trifluoromethyl)-1(2H)-pyrimidinyl]-N-[(m-methylbenzyl)sulfonyl]-]", "values": [{"measurement": "CYPSE herbicidal rating", "setting": "[1]; 0.0620 kg/ha", "value": 4.0}, {"measurement": "CYPSE herbicidal rating", "setting": "[1]; 0.2500 kg/ha", "value": 6.0}, {"measurement": "SAGPY herbicidal rating", "setting": "[2]; 0.0320 kg/ha", "value": 0.0}, {"measurement": "SAGPY herbicidal rating", "setting": "[2]; 0.0620 kg/ha", "value": 0.0}, {"measurement": "SAGPY herbicidal rating", "setting": "[2]; 0.1250 kg/ha", "value": 3.0}, {"measurement": "SAGPY herbicidal rating", "setting": "[2]; 0.2500 kg/ha", "value": 5.0}, {"measurement": "MOOVA herbicidal rating", "setting": "[3]; 0.0320 kg/ha", "value": 7.0}, {"measurement": "MOOVA herbicidal rating", "setting": "[3]; 0.0620 kg/ha", "value": 9.0}, {"measurement": "MOOVA herbicidal rating", "setting": "[3]; 0.1250 kg/ha", "value": 9.0}, {"measurement": "MOOVA herbicidal rating", "setting": "[3]; 0.2500 kg/ha", "value": 9.0}, {"measurement": "CYPIR herbicidal rating", "setting": "[4]; 0.0320 kg/ha", "value": 0.0}, {"measurement": "CYPIR herbicidal rating", "setting": "[4]; 0.0620 kg/ha", "value": 2.0}, {"measurement": "CYPIR herbicidal rating", "setting": "[4]; 0.1250 kg/ha", "value": 5.0}, {"measurement": "CYPIR herbicidal rating", "setting": "[4]; 0.2500 kg/ha", "value": 6.0}, {"measurement": "ECHORC herbicidal rating", "setting": "[5]; 0.0320 kg/ha", "value": 6.0}, {"measurement": "ECHORC herbicidal rating", "setting": "[5]; 0.0620 kg/ha", "value": 7.0}, {"measurement": "ECHORC herbicidal rating", "setting": "[5]; 0.1250 kg/ha", "value": 7.0}, {"measurement": "ECHORC herbicidal rating", "setting": "[5]; 0.2500 kg/ha", "value": 7.0}, {"measurement": "ORYSAT herbicidal rating (rice tolerance)", "setting": "[6]; 0.0320 kg/ha", "value": 3.0}, {"measurement": "ORYSAT herbicidal rating (rice tolerance)", "setting": "[6]; 0.0620 kg/ha", "value": 3.0}, {"measurement": "ORYSAT herbicidal rating (rice tolerance)", "setting": "[6]; 0.1250 kg/ha", "value": 5.0}, {"measurement": "ORYSAT herbicidal rating (rice tolerance)", "setting": "[6]; 0.2500 kg/ha", "value": 6.0}]}, {"compound": "Cn1c(C(F)(F)F)cc(=O)n(-c2ccc3snc(/C=N/O)c3c2)c1=O", "note": "[Example 278, 1,2-Benzisothiazole-3-carboxaldehyde, 5-[3,6-dihydro-3-methyl-2,6-dioxo-4-(trifluoromethyl)-1(2H)-pyrimidinyl]-, 3-oxime, (E)-]", "values": [{"measurement": "CYPSE herbicidal effect rating", "setting": "[1]; Rate 0.0320 kg/ha", "value": 0.0}, {"measurement": "CYPSE herbicidal effect rating", "setting": "[1]; Rate 0.0620 kg/ha", "value": 0.0}, {"measurement": "CYPSE herbicidal effect rating", "setting": "[1]; Rate 0.1250 kg/ha", "value": 2.0}, {"measurement": "CYPSE herbicidal effect rating", "setting": "[1]; Rate 0.2500 kg/ha", "value": 4.0}, {"measurement": "CYPSE herbicidal effect rating", "setting": "[1]; Rate 0.5000 kg/ha", "value": 9.0}, {"measurement": "SAGPY herbicidal effect rating", "setting": "[2]; Rate 0.0320 kg/ha", "value": 0.0}, {"measurement": "SAGPY herbicidal effect rating", "setting": "[2]; Rate 0.0620 kg/ha", "value": 0.0}, {"measurement": "SAGPY herbicidal effect rating", "setting": "[2]; Rate 0.1250 kg/ha", "value": 0.0}, {"measurement": "SAGPY herbicidal effect rating", "setting": "[2]; Rate 0.2500 kg/ha", "value": 2.0}, {"measurement": "SAGPY herbicidal effect rating", "setting": "[2]; Rate 0.5000 kg/ha", "value": 9.0}, {"measurement": "MOOVA herbicidal effect rating", "setting": "[3]; Rate 0.0320 kg/ha", "value": 6.0}, {"measurement": "MOOVA herbicidal effect rating", "setting": "[3]; Rate 0.0620 kg/ha", "value": 8.0}, {"measurement": "MOOVA herbicidal effect rating", "setting": "[3]; Rate 0.1250 kg/ha", "value": 9.0}, {"measurement": "MOOVA herbicidal effect rating", "setting": "[3]; Rate 0.2500 kg/ha", "value": 9.0}, {"measurement": "MOOVA herbicidal effect rating", "setting": "[3]; Rate 0.5000 kg/ha", "value": 9.0}, {"measurement": "CYPIR herbicidal effect rating", "setting": "[4]; Rate 0.0320 kg/ha", "value": 0.0}, {"measurement": "CYPIR herbicidal effect rating", "setting": "[4]; Rate 0.0620 kg/ha", "value": 2.0}, {"measurement": "CYPIR herbicidal effect rating", "setting": "[4]; Rate 0.1250 kg/ha", "value": 7.0}, {"measurement": "CYPIR herbicidal effect rating", "setting": "[4]; Rate 0.2500 kg/ha", "value": 9.0}, {"measurement": "CYPIR herbicidal effect rating", "setting": "[4]; Rate 0.5000 kg/ha", "value": 9.0}, {"measurement": "ECHORC herbicidal effect rating", "setting": "[5]; Rate 0.0320 kg/ha", "value": 0.0}, {"measurement": "ECHORC herbicidal effect rating", "setting": "[5]; Rate 0.0620 kg/ha", "value": 6.1}, {"measurement": "ECHORC herbicidal effect rating", "setting": "[5]; Rate 0.1250 kg/ha", "value": 7.4}, {"measurement": "ECHORC herbicidal effect rating", "setting": "[5]; Rate 0.2500 kg/ha", "value": 8.0}, {"measurement": "ECHORC herbicidal effect rating", "setting": "[5]; Rate 0.5000 kg/ha", "value": 9.0}, {"measurement": "ORYSAT herbicidal effect rating", "setting": "[6]; Rate 0.0320 kg/ha", "value": 2.0}, {"measurement": "ORYSAT herbicidal effect rating", "setting": "[6]; Rate 0.0620 kg/ha", "value": 3.0}, {"measurement": "ORYSAT herbicidal effect rating", "setting": "[6]; Rate 0.1250 kg/ha", "value": 4.0}, {"measurement": "ORYSAT herbicidal effect rating", "setting": "[6]; Rate 0.2500 kg/ha", "value": 7.0}, {"measurement": "ORYSAT herbicidal effect rating", "setting": "[6]; Rate 0.5000 kg/ha", "value": 8.0}]}, {"compound": "Cn1c(C(F)(F)F)cc(=O)n(-c2ccc3snc(COCc4ccc(Cl)cc4Cl)c3c2)c1=O", "note": "[Example 585, 2,4(1H,3H)-Pyrimidinedione, 3-{3-{[(2,4-dichlorobenzyl)oxy]methyl}-1,2-benzisothiazol-5-yl}-1-methyl-6-(trifluoromethyl)-]", "values": [{"measurement": "herbicidal effect rating, CYPSE", "setting": "[1]; Rate 0.0320 kg/ha", "value": 0.0}, {"measurement": "herbicidal effect rating, CYPSE", "setting": "[1]; Rate 0.0620 kg/ha", "value": 0.0}, {"measurement": "herbicidal effect rating, CYPSE", "setting": "[1]; Rate 0.1250 kg/ha", "value": 0.0}, {"measurement": "herbicidal effect rating, CYPSE", "setting": "[1]; Rate 0.2500 kg/ha", "value": 3.0}, {"measurement": "herbicidal effect rating, SAGPY", "setting": "[2]; Rate 0.0320 kg/ha", "value": 0.0}, {"measurement": "herbicidal effect rating, SAGPY", "setting": "[2]; Rate 0.0620 kg/ha", "value": 1.5}, {"measurement": "herbicidal effect rating, SAGPY", "setting": "[2]; Rate 0.1250 kg/ha", "value": 2.0}, {"measurement": "herbicidal effect rating, SAGPY", "setting": "[2]; Rate 0.2500 kg/ha", "value": 2.5}, {"measurement": "herbicidal effect rating, MOOVA", "setting": "[3]; Rate 0.0320 kg/ha", "value": 3.5}, {"measurement": "herbicidal effect rating, MOOVA", "setting": "[3]; Rate 0.0620 kg/ha", "value": 3.5}, {"measurement": "herbicidal effect rating, MOOVA", "setting": "[3]; Rate 0.1250 kg/ha", "value": 4.5}, {"measurement": "herbicidal effect rating, MOOVA", "setting": "[3]; Rate 0.2500 kg/ha", "value": 9.0}, {"measurement": "herbicidal effect rating, CYPIR", "setting": "[4]; Rate 0.0320 kg/ha", "value": 2.5}, {"measurement": "herbicidal effect rating, CYPIR", "setting": "[4]; Rate 0.0620 kg/ha", "value": 8.5}, {"measurement": "herbicidal effect rating, CYPIR", "setting": "[4]; Rate 0.1250 kg/ha", "value": 9.0}, {"measurement": "herbicidal effect rating, CYPIR", "setting": "[4]; Rate 0.2500 kg/ha", "value": 9.0}, {"measurement": "herbicidal effect rating, ECHORC", "setting": "[5]; Rate 0.0320 kg/ha", "value": 5.0}, {"measurement": "herbicidal effect rating, ECHORC", "setting": "[5]; Rate 0.0620 kg/ha", "value": 8.5}, {"measurement": "herbicidal effect rating, ECHORC", "setting": "[5]; Rate 0.1250 kg/ha", "value": 8.5}, {"measurement": "herbicidal effect rating, ECHORC", "setting": "[5]; Rate 0.2500 kg/ha", "value": 9.0}, {"measurement": "herbicidal effect rating ORYSAT", "setting": "[6]; Rate 0.0320 kg/ha", "value": 1.0}, {"measurement": "herbicidal effect rating ORYSAT", "setting": "[6]; Rate 0.0620 kg/ha", "value": 1.5}, {"measurement": "herbicidal effect rating ORYSAT", "setting": "[6]; Rate 0.1250 kg/ha", "value": 1.5}, {"measurement": "herbicidal effect rating ORYSAT", "setting": "[6]; Rate 0.2500 kg/ha", "value": 1.5}]}]}
